From publication PMC9557727, “How an assembly factor enhances covalent FAD attachment to the flavoprotein subunit of complex II” (The Journal of Biological Chemistry, 2022)
Read-outs that look alike come from different tables or passages of the source.

What was measured:
[1] = molecular target: T1, E. coli apo-FrdA (Escherichia coli, UniProt P00363); assay type: biochemical; conditions: ligand 20 mM, FAD 100 μM, 1 h, 30 °C; for Covalent FAD attachment to apo-FrdA, SdhE-dependent: +SdhE 10.4 μM
T1 construct: His6 (N); made in house; host or cells: E. coli RP437 ΔsdhE (RP-E), plasmid pCA24N-FrdA
T1 sequence (P00363 whole entry): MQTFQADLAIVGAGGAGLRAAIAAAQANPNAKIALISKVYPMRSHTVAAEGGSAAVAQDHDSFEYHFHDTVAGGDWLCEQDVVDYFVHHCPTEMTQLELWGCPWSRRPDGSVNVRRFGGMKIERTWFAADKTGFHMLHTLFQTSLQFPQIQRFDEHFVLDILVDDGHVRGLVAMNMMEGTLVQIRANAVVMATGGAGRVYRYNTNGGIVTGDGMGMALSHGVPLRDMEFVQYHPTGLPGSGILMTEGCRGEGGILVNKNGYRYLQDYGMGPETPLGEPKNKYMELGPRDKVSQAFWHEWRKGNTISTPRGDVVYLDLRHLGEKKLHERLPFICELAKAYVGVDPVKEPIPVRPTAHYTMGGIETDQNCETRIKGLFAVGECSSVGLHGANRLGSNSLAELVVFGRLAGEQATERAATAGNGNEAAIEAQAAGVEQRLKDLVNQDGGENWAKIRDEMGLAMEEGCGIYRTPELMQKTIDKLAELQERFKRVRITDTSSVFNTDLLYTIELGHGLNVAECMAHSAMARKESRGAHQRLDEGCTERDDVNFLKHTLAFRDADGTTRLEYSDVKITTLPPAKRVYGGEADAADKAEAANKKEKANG
Method: (§1) Unless specified, the reaction was performed in 50 mM potassium phosphate (pH 7.0) at 30 °C for 1 h. […] The reaction was started after addition of the appropriate flavinylation-promoting ligand at the as-indicated concentration. At different time points, the samples were mixed with 4× SDS loading buffer (Bio-Rad), and the sample loaded onto an SDS-PAGE gel (Bio-Rad; Any KdA). Following protein separation, the gel was incubated in 10% acetic acid/20% ethanol for 5 min. Upon illumination with UV light, complex II flavinylated flavoprotein is visible because of the fluorescence of the covalently bound flavin. The in-gel fluorescence of covalently attached FAD was detected using a Safe Imager 2.0 blue-light transilluminator (Thermo Fisher Scientific). The gel was then rinsed with water for 5 min and stained with Instant Blue stain (Expedeon). ImageJ (National Institutes of Health) software was used for quantification of covalently bound FAD levels and relative protein ratios. The isolated holo-SdhA/FrdA or SDHA–SDHAF2 complex were used as 100% covalent flavinylated controls. […] To do that, upon addition of fumarate, the sample (200 μl) was quickly mixed and filled into an automatic pipette. Each sample (15 μl) was then injected into a vial containing 5 μl of 4× SDS loading gel. This allowed collection of time points that are at 10 to 15 s intervals.

[2] = molecular target: T2, E. coli apo-SdhA (Escherichia coli, UniProt P0AC41); assay: biochemical; assay type: biochemical; conditions: for Covalent FAD attachment to apo-SdhA, SdhE-dependent: +SdhE 10.4 μM; for Covalent FAD attachment to apo-SdhA, SdhE-dependent / Covalent FAD attachment to apo-SdhA, SdhE-independent: ligand 20 mM
T2 construct: His6 (N); made in house; host or cells: E. coli RP437 ΔsdhE (RP-E), plasmid pCA24N-SdhA
T2 sequence (P0AC41 whole entry): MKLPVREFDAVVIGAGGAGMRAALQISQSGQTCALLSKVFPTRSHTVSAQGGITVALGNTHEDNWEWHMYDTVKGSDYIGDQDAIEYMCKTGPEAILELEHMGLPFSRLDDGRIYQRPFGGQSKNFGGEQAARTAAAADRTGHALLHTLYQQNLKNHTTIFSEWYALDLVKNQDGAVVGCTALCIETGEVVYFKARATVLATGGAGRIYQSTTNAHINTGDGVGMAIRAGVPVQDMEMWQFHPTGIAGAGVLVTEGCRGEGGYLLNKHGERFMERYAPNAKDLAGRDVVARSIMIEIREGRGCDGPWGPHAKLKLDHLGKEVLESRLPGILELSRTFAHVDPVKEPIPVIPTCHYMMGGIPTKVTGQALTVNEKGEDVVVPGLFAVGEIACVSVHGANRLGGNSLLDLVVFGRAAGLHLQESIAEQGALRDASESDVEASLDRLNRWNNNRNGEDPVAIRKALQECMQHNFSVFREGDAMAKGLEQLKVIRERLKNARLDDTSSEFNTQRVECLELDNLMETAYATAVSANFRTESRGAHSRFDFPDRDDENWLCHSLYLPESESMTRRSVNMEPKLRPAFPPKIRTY
Method: as §1

[3] = molecular target: T3, apo-SdhA (Escherichia coli, UniProt P0AC41); assay: Determination of Kd for FAD by ultrafiltration; assay type: binding; design: His6 (N); made in house; host or cells: E. coli RP437 ΔsdhE (RP-E), plasmid pCA24N-SdhA; conditions: 50 mM Hepes pH 7.0, 21 °C
Method: The method is adapted from Mortarino et al. ([36]). […] The exact volume and the concentration of free flavin (ε^450 = 11.3 mM^−1 cm^−1) in the filtrate was measured, and it is assumed the free flavin (FAD^free) concentrations are the same in the filtrate and concentrated fractions. The total FAD in the concentrated fraction was calculated, and the excess over FAD^free corresponded to SdhA–noncovalent FAD. The Kd = [FAD^free][apo-SdhA]/[SdhA–FAD] was calculated from the amount of apo-SdhA determined by total protein concentration. The data are expressed as mean ± SD of four to five independent measurements.
Target sequence in this assay (P0AC41 whole entry): as above

[4] = design: method as in PMID 4752947, PMID 6263261, PMID 15884941; conditions: free FAD in solution; cited from earlier work
[5] = molecular target: T4, human apo-SDHA (Homo sapiens, UniProt P31040); assay: In vitro covalent flavinylation of human apo-SDHA; assay type: biochemical
T4 construct: His6 (N); made in house; host or cells: E. coli BL21(DE3), plasmid pQE-hSDHA
T4 sequence (P31040 43-664): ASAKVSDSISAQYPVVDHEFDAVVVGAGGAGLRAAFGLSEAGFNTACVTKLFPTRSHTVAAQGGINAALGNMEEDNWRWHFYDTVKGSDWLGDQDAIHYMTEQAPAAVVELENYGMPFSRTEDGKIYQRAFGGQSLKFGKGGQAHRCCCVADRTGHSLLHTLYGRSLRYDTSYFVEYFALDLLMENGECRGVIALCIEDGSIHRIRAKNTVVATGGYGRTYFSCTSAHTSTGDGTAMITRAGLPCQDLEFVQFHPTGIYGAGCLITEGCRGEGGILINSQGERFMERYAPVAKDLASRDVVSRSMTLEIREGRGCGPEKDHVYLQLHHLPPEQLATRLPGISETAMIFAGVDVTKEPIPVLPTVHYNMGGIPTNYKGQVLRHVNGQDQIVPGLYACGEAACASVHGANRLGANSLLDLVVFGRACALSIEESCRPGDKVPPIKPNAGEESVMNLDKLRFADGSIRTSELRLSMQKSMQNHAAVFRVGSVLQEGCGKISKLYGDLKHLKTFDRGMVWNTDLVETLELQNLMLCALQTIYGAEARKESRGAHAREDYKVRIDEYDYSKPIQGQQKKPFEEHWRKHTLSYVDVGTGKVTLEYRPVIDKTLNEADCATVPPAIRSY
Method: as §1

[6] = molecular target: T3, apo-SdhA; assay type: biochemical; design: His6 (N); made in house; host or cells: apo-SdhA: E. coli RP437 ΔsdhE (pCA24N-SdhA); conditions: 30 min at 37 °C; FAD 100 μM, SdhE 10.4 μM
Target sequence in this assay (P64559 whole entry): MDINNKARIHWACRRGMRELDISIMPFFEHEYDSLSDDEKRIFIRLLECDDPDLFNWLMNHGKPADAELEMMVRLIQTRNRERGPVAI
Target sequence in this assay (P0AC41 whole entry): as the sequence (P0AC41 whole entry) above
Method: Apo-SdhA (2.8 μM) or apo-SDHA (4.3 μM) in 40 mM Hepes (pH 7.5) was incubated at 37 °C as follows: (1) no addition; (2) FAD (100 μM); (3) the assembly factors SdhE (10.4 μM) or SDHAF2 (8.4 μM); and (4) FAD (100 μM) plus appropriate assembly factors at the aforementioned concentrations. The incubation time was 15 min for SDHA and 30 min for SdhA. Corresponding control samples (with no additions) were held at 4 °C for the same time. After the incubation, the samples were transferred to 4 °C, and to all samples, including the control, either FAD and/or the assembly factor was added so that each sample contains 100 μM FAD and the appropriate assembly factor. Then 0.5 mM fumarate is added to each sample to initiate the flavinylation reaction. After 30 min incubation at 30 °C, 4× SDS sample buffer was added, and then in-gel fluorescence was determined as described previously.

[7] = molecular target: T3, apo-SdhA; assay: Hydrogen peroxide formation upon covalent flavinylation of SdhA (Amplex UltraRed); assay type: biochemical; design: His6 (N); made in house; host or cells: apo-SdhA: E. coli RP437 ΔsdhE (pCA24N-SdhA); conditions: apo-SdhA 2.8 μM, FAD 2.5 μM, SdhE 4.8 μM
Method: Upon covalent attachment, the flavin in SdhA became reduced and can be reoxidized by oxygen with formation of hydrogen peroxide. Amplex UltraRed was used to monitor the hydrogen peroxide formed. […] The reaction was started by addition of either 10 μM or 10 mM fumarate and hydrogen peroxide monitored by following the oxidation of Amplex UltraRed (567 nm) using an Agilent 8453 spectrophotometer.
Target sequence in this assay (P64559 whole entry): as the sequence (P64559 whole entry) above
Target sequence in this assay (P0AC41 whole entry): as the sequence (P0AC41 whole entry) above

[8] = system: Sulfolobus tokodaii succinate dehydrogenase; conditions: no sdhE gene; cited from earlier work
[9] = molecular target: holo-SdhA–SdhE; design: method as in PMID 29348404; conditions: read-out: Kd for fumarate, holo-SdhA–SdhE complex; holo-SdhA with covalent FAD; cited from earlier work
[10] = system: Thermus thermophilus succinate dehydrogenase; conditions: no sdhE gene; cited from earlier work
[11] = molecular target: T4, human apo-SDHA; design: method as in PMID 32887801; conditions: cited from earlier work
[12] = molecular target: T3, apo-SdhA; assay: Reduction/oxidation of FAD during SdhE-dependent flavinylation (absorbance at 452 nm); assay type: biochemical; design: His6 (N); made in house; host or cells: apo-SdhA: E. coli RP437 ΔsdhE (pCA24N-SdhA); conditions: 10 mM fumarate; 25 μM apo-SdhA, 20 μM FAD, 40 μM SdhE, 30 °C
Method: Spectral measurements and kinetics were performed by using an Agilent […] UV–visible spectrophotometer. For kinetic measurements, whole spectra (1 nm increments) were collected during the reaction at 1 to 5 s intervals.
Target sequence in this assay (P64559 whole entry): as the sequence (P64559 whole entry) above
Target sequence in this assay (P0AC41 whole entry): as the sequence (P0AC41 whole entry) above

[13] = +SdhE, 50 mM potassium phosphate pH 7.0, 0.1 mM FAD, 30 °C
[14] = read-out: k, ligand concentration for half-maximal flavinylation after 1 h incubation, +SdhE, 50 mM potassium phosphate pH 7.0, 0.1 mM FAD, 30 °C, 1 h

Compound | Covalent FAD attachment to apo-FrdA, SdhE-dependent [1] | Covalent FAD attachment to apo-FrdA, SdhE-independent [1] | Covalent FAD attachment to apo-SdhA, SdhE-dependent ([2]; FAD 100 μM, 1 h, 30 °C) | K, apparent first-order rate constant of covalent flavinylation, +SdhE [2, 13] [min⁻¹] | Initiation of flavinylation in Thermus thermophilus [10] | Covalent FAD attachment to apo-SdhA, SdhE-independent ([2]; −SdhE, FAD 100 μM, 1 h, 30 °C) | other results
N[C@@H](CC(=O)O)C(=O)O [Aspartate, L-aspartate] | high levels | partially effective | high levels | 0.1 | – | – | EC50 [2]: 26 µM
Cc1cc2nc3c(=O)[nH]c(=O)nc-3n(C[C@H](O)[C@H](O)[C@H](O)COP(=O)(O)OP(=O)(O)OC[C@H]3O[C@@H](n4cnc5c(N)ncnc54)[C@H](O)[C@@H]3O)c2cc1C [FAD] | – | – | – | – | – | – | Kd ([3]; read-out: Estimated apparent Kd for FAD, apo-SdhA in the presence of SdhE, +SdhE 12.5 μM): 1.3 ± 0.5 µM; Kd ([3]; without SdhE, read-out: Estimated apparent Kd for FAD, apo-SdhA alone): 14.4 ± 1.7 µM; Redox potential Em of free FAD [4]: −219 mV; Increase in FAD concentration required for 50% flavinylation without SDHAF2 versus SDHAF2-dependent reaction ([5]; fumarate-only SDHA flavinylation): fivefold; Protection of apo-SdhA against thermal inactivation of the flavinylation reaction [6]: does not afford enhanced stability and protection; FAD requirement for maximum flavinylation of SdhA ([2]; +SdhE, fumarate 10 mM, apo-SdhA 6 μM, 1 h, 30 °C): stoichiometric ratios of FAD to apo-SdhA; EC50 ([2]; −SdhE, fumarate 10 mM, apo-SdhA 6 μM, 1 h, 30 °C, read-out: FAD concentration for half-maximal flavinylation of SdhA): ~20 µM
O=C(O)/C=C/C(=O)O [Fumarate] | high levels | complete | high levels | 1.7 | quite proficient | complete | Hydrogen peroxide formation on induction of flavinylation ([7]; 10 μM fumarate): significant increase in hydrogen peroxide; Hydrogen peroxide formation on induction of flavinylation ([7]; 10 mM fumarate): very low release of hydrogen peroxide; Initiation of flavinylation in Sulfolobus tokodaii [8]: proficient flavinylation; Kd [9]: 64 µM; Saturation level of SDHAF2-independent flavinylation relative to SDHAF2-dependent flavinylation ([5]; −SDHAF2, 60 mM fumarate, 100 μM FAD, time course): ~70%; k, rate of covalent flavinylation of SDHA, − SDHAF2 ([5]; −SDHAF2, 60 mM fumarate, 100 μM FAD, assuming 70% of protein capable of flavinylation): 0.032 min⁻¹; EC50 ([5]; −SDHAF2, fumarate concentration for 50% flavinylation, read-out: K (fum), − SDHAF2): 12000 µM; SDHAF2-independent flavinylation of SDHA relative to flavinylation in the presence of SDHAF2 ([5]; −SDHAF2, ligand 20 mM, FAD 100 μM, 1 h, 37 °C): ~40%; EC50 ([11]; +SDHAF2, read-out: Concentration of fumarate needed to achieve 50% flavinylation, with SDHAF2): 16 µM; k, rate of covalent flavinylation of SDHA, + SDHAF2 [11]: 0.15 min⁻¹; k app, fast phase (reduction of FAD) [12]: ~7 min⁻¹; k app, second slower phase (reoxidation of reduced flavin) [12]: ~0.1 min⁻¹; Fumarate concentration giving complete flavinylation of apo-SdhA ([2]; +SdhE, apo-SdhA 6 μM, FAD 100 μM, 1 h, 30 °C): ~1 µM; EC50 [2, 14]: < 1 µM; k, apparent first-order rate constant of covalent flavinylation, −SdhE ([2]; −SdhE, 50 mM potassium phosphate pH 7.0, 0.1 mM FAD, 30 °C): 0.1 min⁻¹; k, apparent first-order rate constant of covalent flavinylation, −SdhE ([2]; −SdhE, 50 mM potassium phosphate pH 7.0, 0.1 mM FAD, 30 °C, listed as fumarate): 0.095 min⁻¹
O=C(O)CC(O)C(=O)O (centres unmarked) [Malate, malate] | high levels | – | high levels | 0.3 | quite proficient | partially effective | EC50 [2]: 10 µM
CC(=O)C(=O)O [Pyruvate] | able to induce | – | able to induce | – | – | – | –
O=C(O)CCC(=O)O [Succinate, succinate] | high levels | – | high levels | 0.7 | quite proficient | partially effective | Initiation of flavinylation in Sulfolobus tokodaii [8]: proficient flavinylation; EC50 [2, 14]: 1 µM
CC(=O)O [acetate] | ~30% | – | ~30% | – | – | – | –
O=C(O)CC(O)(CC(=O)O)C(=O)O [citrate] | able to induce | – | able to induce | – | – | – | –
O=C(O)CC(=O)O [malonate] | ~30% | – | ~30% | – | – | – | –
O=C(O)CC(=O)C(=O)O [oxaloacetate] | high levels | partially effective | high levels | – | quite proficient | – | –
